Reference: patent US5523321A, “Prostacyclins, their analogs or prostaglandins and thromboxane antagonists for treatment of thrombotic and thromboembolic syndromes” (Schering Aktiengeselleschaft, priority 1985, dated 1996)
Read-outs that look alike come from different tables or passages of the source.

Experiments:
jugular vein thrombosis = assay: Jugular vein thrombosis on anesthetized rats; assay type: in vivo
Procedure: 4. Jugular Vein Thrombosis on Anesthetized Rats
By stressing of the jugular vein of rats anesthetized with urethane with a metal punch cooled to -15° C. (200 g, 2 min) the vessel is predamaged. The thrombus grown within 3 hours on this site is quantified (Hb content wet weight) by determinations of its Hb content (difference damaged-undamaged vessel segment).
The infusion of the test substances begins 15 min before damaging the vein and is continued until the end of the test.

[1] = system: 2nd wave of aggregation induced by ADP (human PRP); assay: Thrombocyte function in vitro: 2nd wave of aggregation by ADP (human PRP); assay type: cell-based; details: for % Inhibition (2nd wave of aggregation): 0.5×10^-6 M ADP; for IC50: human PRP, stimulant ADP
Procedure: (§1) 1. Thrombocyte Function In Vitro (Human PRP)
(§2) BM 13 177 (in the text, BM) and Iloprost are tested in their action on thrombocyte aggregation and thrombocyte shape change against stimulants U 46 619 (9,11-dideoxy,9alpha-11alpha-methanoepoxy PGF2alpha, stable TXA2 agonist) and ADP and the IC50 values are determined. Then in several independent tests the action of a combination of the two substances on the aggregation (U 46 619 and ADP) in various concentrations is tested; especially the combination of low dosages and of dosages of the two substances in the range of the IC50 values is tested.
(§3) Platelet aggregation and shape change are measured as light-optical phenomena in stimulated PRP (platelet rich plasma) samples. In this case, the shape change is detected as the density increase of the sample by transition of the discoid rest shape of the platelet into a spherozytic shape with formation of pseudopodlike membrane formations and represented on a recorder. The aggregation is photometrically detected as density […] by clumping and "precipitation" of platelet aggregates and represented on a recorder.
Example 3: 2nd wave of aggregation by 0.5×10^-6 M ADP

[2] = system: platelet shape change induced by U 46 619 (human PRP); assay: Thrombocyte function in vitro: shape change by U 46 619 (human PRP); assay type: cell-based; details: for IC50: human PRP, stimulant U 46 619
Procedure: as §1, §2, §3
Example 2: Shape change by 50 ng/ml U 46 619

[3] = system: platelet aggregation induced by U 46 619 (human PRP); assay: Thrombocyte function in vitro: aggregation by U 46 619 (human PRP); assay type: cell-based
Procedure: as §1, §2, §3

[4] = system: intravascular thrombocyte aggregation (collagen-induced thrombocytopenia); assay: Intravascular thrombocyte aggregation on anesthetized rats (collagen-induced thrombocytopenia); assay type: in vivo
Description: 2. Intravascular Thrombocyte Aggregation on Anesthetized Rats
The influence of the intravascular thrombocyte aggregation is examined on urethane anesthetized rats.
Collagen (100 micrograms/kg i.v. bolus) causes transitory thrombocytopenias (a transient loss of blood platelet concentration), measured by continuous taking of blood from the A. carotis (50 microliter/min) and thrombocyte counting in the Technicon Autocounter. The change of the collagen-induced thrombocytopenia (% of loss) in comparison with the initial value (=2nd collagen injection) serves as a measurement for the inhibition of the intravascular platelet aggregation.

[5] = system: mesenteric arteriole thrombosis (topical ADP); assay: Mesenteric arteriole thrombosis on anesthetized guinea pigs; assay type: in vivo
Procedure: 3. Mesenteric Arteriole Thrombosis on Anesthetized Guinea Pigs
A mesenteric loop for vital microscopy is prepared on anesthetized guinea pigs. After electrical lesion of an arteriole, under controlled conditions and after substance application, ADP is applied topically until finding of a thrombogenic dose (occlusion by platelet thrombus).
Parameters: increasing of the thrombogenic ADP concentration vs. initial value; i.v. infusion of Iloprost, i.v. injection of BM 13 177.

[6] = Blood pressure of spontaneously hypertonic (SH) rats; details: Iloprost 0.3 microgram/kg/min (threshold dose), awake SH rats

SMILES: O=C(O)COc1ccc(CCNS(=O)(=O)c2ccccc2)cc1 [BM 13 177, 4-[2-(benzenesulfonamido)-ethyl]-phenoxyacetic acid]
- antithrombotic effect, Hb content of thrombi (in words) (jugular vein thrombosis; BM 13 177 20 mg/kg i.v. bolus + 50 micrograms/kg/min i.v., monotherapy): ineffective
- antithrombotic effect (in words) (jugular vein thrombosis; BM 13 177 as monotherapy): not antithrombotically effective
- % Inhibition (2nd wave of aggregation) ([1]; 0.165 microM BM 13 177): no inhibition
- IC50 ([1]; BM 13 177): 0.33 to 0.66 µM
- inhibition at 0.66 µM ([2]; Homo sapiens, Platelet, 0.66 microM BM 13 177, 50 ng/ml U 46 619): 28%
- IC50 ([2]; Platelet, BM 13 177, read-out: IC50 for the shape change): 1.65 to 3.3 µM
- IC50 ([3]; BM 13 177, human PRP, stimulant U 46 619, read-out: IC50 for the aggregation): 1.65 to 6.6 µM
- inhibition at 0.66 µM ([3]; Homo sapiens, 0.66 microM BM 13 177, 100 ng/ml U 46 619): 16%
- inhibition of collagen-induced thrombocytopenia ([4]; BM 13 177 0.5 mg/kg/min (lowest dosage), MW±SE): about 27±6%
- platelet inhibition in vivo ([4]; BM 13 177 2 mg/kg i.v. infusion): 27%
- inhibition of collagen-induced thrombocytopenia on raising the dosage (in words) ([4]; BM 13 177 1.0-2.0 mg/kg/min): cannot be increased by raising the dosage
- increase of thrombogenic ADP concentration (factor) ([5]; BM 13 177 25 mg/kg i.v., significant): ~4

SMILES: CC#CCC(C)[C@H](O)/C=C/[C@@H]1[C@H]2C/C(=C/CCCC(=O)O)C[C@H]2C[C@H]1O (stereo partly shown) [Iloprost]
- antithrombotic effect, Hb content of thrombi (in words) (jugular vein thrombosis; Iloprost 30 ng/kg/min i.v., individual dose): not significantly effective
- % Inhibition (2nd wave of aggregation) ([1]; 0.1 ng/ml Iloprost): no inhibition
- IC50 ([1]; Iloprost): 0.00026 to 0.00065 µM
- % Inhibition (shape change) ([2]; 0.1 ng/ml Iloprost, 50 ng/ml U 46 619): no inhibition
- IC50 ([2]; Platelet, Iloprost, read-out: IC50 for the shape change inhibition): 0.00052 to 0.0013 µM
- inhibition at 0.0001 µg/mL ([3]; Homo sapiens, 0.1 ng/ml Iloprost, 100 ng/ml U 46 619): 2%
- IC50 ([3]; Iloprost, human PRP, stimulant U 46 619, read-out: IC50 for the aggregation inhibition): 0.0013 to 0.0026 µM
- reduction of diastolic blood pressure [6]: 20%
- inhibition of collagen-induced thrombocytopenia (in words) ([4]; Iloprost 0.1-0.33-1.0 micrograms/kg/min): inhibits the collagen-induced thrombocytopenia, depending on the dose
- increase of thrombogenic ADP concentration (factor) ([5]; Iloprost 0.1 microgram/kg/min i.v. (threshold dose)): 2.8
